The text below walks through data of patent US20250248970A1, “NOVEL SUBSTITUTED FLUORINATED N-PROPYL-PYRROLIDINE COMPOUNDS, PROCESSES FOR THEIR PREPARATION AND THERAPEUTIC USES THEREOF” (SANOFI, priority 2022, published 2025).

For one data set, the system named is CYP3A4. In words: CYP3A4 induction potential for ADME profile evaluation (CYP3A4 mRNA by RT-PCR in primary human hepatocytes). The settings on record: for CYP3A4 induction Emax (%): approximately 48 hours, 0.3-10 μM, relative to 10 μM rifampicin. It counts as in vitro ADME. The procedure: Such test is based, for example, on the quantification of CYP3A4 mRNA induction performed by RT-PCR analysis. Said % Emax may be calculated as detailed in the illustrative part under the following formula:
[formula] • ECompound: relative fold mRNA expression following treatment with test compound, • EPositive control: relative fold mRNA expression following reference inducer i.e., 10 μM rifampicin, • EVehicle control: relative fold mRNA expression following vehicle treatment i.e., 0.1% DMSO, and • E is the efficiency of the quantitative PCR.
Said test evaluates the potential induction effect of the tested compounds on CYP3A4 gene expression in primary cultures of human hepatocytes from one or two donors with established concentration-dependent response to the reference inducer, rifampicin.
Before seeding, cell viability was estimated using the Trypan blue dye exclusion test. Hepatocytes were seeded on collagen I-coated 96-well plates at a density of 70 000 cells/well in 100 μL of plating medium for at least 4 hours under a humidified atmosphere of CO2/air (5%/95%), at 37° C. After the cell attachment period, the plating medium was removed, and the hepatocytes were treated daily for 2 consecutive days (approximately 48 hours), with 100 μL per well of fresh culture medium containing either the vehicle control (0.1% DMSO) or the investigated compounds at four concentrations 0.3, 1, 3 and 10 μM, or rifampicin, the reference inducer at 10 μM. All incubations were performed in duplicates.
Ten mM stock solutions of the different compounds were diluted to obtain 0.3, 1 and 3 mM daughter solutions. The day of the experiment, stock solutions were diluted 1000-fold in the incubation/culture medium to achieve final concentrations of 0.3, 1, 3 and 10 μM.
After the 48-hour incubation period with the test compounds, the cell culture medium was removed, and the cells were lysed to release the RNA for CYP3A4 gene expression assessment. Quantification of CYP3A4 mRNA induction was performed by RT-PCR analysis.
Total RNA was extracted from hepatocytes using the King Fisher™ Flex Purification System with the MagMAX mirVana Total RNA Isolation kit (Thermo Fisher Scientific, USA). RNA was quantified by fluorimetry using the Quantifluor RNA System (Promega, USA) and cDNAs were synthesized from […] total RNA using the iScript Reverse Transcription Supermix for RT-qPCR from Biorad (France) at 42° C. for 30 min. cDNA samples were then diluted in water (1:5) and 5 μL of each sample was used for real-time PCR amplification by using the SYBR Green kit from Biorad (France). The following program was used: a denaturation step at 95° C. for 30 sec, and 40 cycles of PCR (denaturation, 95° C., 10 sec and annealing and extension, 58° C., 1 min). In all cases, the quality of the PCR product was assessed by monitoring a fusion step at the end of the run. Human forward and reverse primer sequences used were: 5′-CCT-GGC-ACC-CAG-CAC-AAT-3′ and 5′-GGG-CCG GAC-TCG-TCA-TAC-3′ for actin, 5′-CAC-AAA-CG-GAG-GCC-TTT-TG-3′ and 5′-ATC-CAT-GCT-GTA-GGC-CCC-AA-3′ for CYP3A4.
Cq (quantification cycle) values were determined using a multi-variable, non-linear regression model to individual well traces and then using this model an optimal Cq value was computed. Cq values are inversely proportional to the amount of target nucleic acid in the sample (i.e., lowest Cq level corresponds to the greatest amount of target nucleic acid in the sample). Cq of reference gene (in this study human actin) was also used as positive control of quantitative PCR.
The extent of induction or % of Emax, resulting from treatment with test compounds was calculated under the following formula: […]

The target of a further data set is T1, ERα (Homo sapiens, UniProt P03372).
T1 construct: host or cells: MCF7
T1 sequence (P03372 1-595): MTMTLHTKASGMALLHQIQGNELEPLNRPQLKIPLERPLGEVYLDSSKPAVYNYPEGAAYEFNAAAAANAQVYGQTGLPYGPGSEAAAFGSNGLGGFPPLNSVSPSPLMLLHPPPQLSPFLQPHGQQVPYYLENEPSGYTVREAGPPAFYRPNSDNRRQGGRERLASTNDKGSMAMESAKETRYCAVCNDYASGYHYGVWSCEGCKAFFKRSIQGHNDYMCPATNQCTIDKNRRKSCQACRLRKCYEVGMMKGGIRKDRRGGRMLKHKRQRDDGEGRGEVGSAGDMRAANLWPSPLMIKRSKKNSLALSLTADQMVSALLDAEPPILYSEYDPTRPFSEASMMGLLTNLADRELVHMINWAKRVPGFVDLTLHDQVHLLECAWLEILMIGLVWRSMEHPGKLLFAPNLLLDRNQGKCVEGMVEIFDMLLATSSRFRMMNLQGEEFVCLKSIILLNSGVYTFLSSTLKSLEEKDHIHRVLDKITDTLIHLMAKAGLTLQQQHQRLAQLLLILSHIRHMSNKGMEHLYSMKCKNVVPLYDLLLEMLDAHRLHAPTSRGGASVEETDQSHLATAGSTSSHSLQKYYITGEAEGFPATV
Nature of the data set: Estrogen receptor degradation activity (breast cancer cell ERα in cell western assay). It counts as cell-based. The following applies: MCF7 cells, 0.3 μM, 4 hours, % of ERα levels decrease relative to fulvestrant. As to the method:
Said test involves measuring the in vitro degradation activity of the compounds of the Table 1a.
The measurements of the degradation activities were made using a breast cancer cell ERα in cell western assay as described hereunder.
MCF7 cells (ATCC) were seeded in 384 wells microplate (collagen coated) at a concentration of 10000 cells/30 μL per well in red phenol free MEM alpha medium (invitrogen) containing 5% charcoal dextran striped FBS. The following day, 9 points serial 1:5 dilution of each compound was added to the cells in 2.5p L at final concentrations ranging from 0.3-0.0000018 μM (in table 2), or 0.1 μM for fulvestrant (using as positive control). At 4 hours post compound addition the cells were fixed by adding 25 μL of formalin (final concentration 5% formalin containing 0.1% triton) for 10 minutes at room temperature and then washed twice with PBS. Then, 50 μL of LI-COR blocking buffer containing 0.1% Triton was added to plate for 30 minutes at room temperature. LI-COR blocking buffer was removed and cells were incubated overnight at cold room with 50 μL anti-ER rabbit monoclonal antibody (Thermo scientific MA1-39540) diluted at 1:1000 in LI-COR blocking buffer containing 0.1% tween-20. Wells which were treated with blocking buffer but no antibody were used as background control. Wells were washed twice with PBS (0.1% tween-20) and incubated at 37° C. for 60 minutes in LI-COR (0.1% tween-20) containing goat anti-rabbit antibody Alexa 488 (1:1000) and Syto-64 a DNA dye (2 μM final concentration). Cells were then washed 3 times in PBS and scanned in ACUMEN explorer (TTP-Labtech). Integrated intensities in the green fluorescence and red fluorescence were measured to determine the levels of ERα and DNA respectively.
The degradation activity with respect to estrogen receptors in this test is given by the concentration which degrades 50% of the estrogen receptor (or IC50) in nM.
The % of ERα levels decrease were determined as follows: % inhibition=100*(1−(sample−fulvestrant: DMSO−fulvestrant)).

With `Cl.O=C(O)c1ccc2c(c1)CCCC(c1ccc(F)cc1Cl)=C2c1ccc(CC2CCN(CCCF)C2)cc1` (single isomer, unassigned; isomer 1) [Compound 2, 8-(2-chloro-4-fluorophenyl)-9-(4-((1-(3-fluoropropyl)pyrrolidin-3-yl)methyl)phenyl)-6,7-dihydro-5H-benzo[7]annulene-3-carboxylic acid hydrochloride, Isomer 1], the “CYP3A4 induction Emax (%)” value in the data set on CYP3A4 is 23%. Further, the “% Degradation At 0.3 μM” value at ERα worked out at 74%.

For `CC1(C)CCC(C2=C(c3ccc(CC4CCN(CCCF)C4)cc3)c3ccc(C(=O)O)cc3CCC2)CC1.Cl` (single isomer, unassigned; isomer 1) [Compound 3, 8-(4,4-dimethylcyclohexyl)-9-(4-((1-(3-fluoropropyl)pyrrolidin-3-yl)methyl)phenyl)-6,7-dihydro-5H-benzo[7]annulene-3-carboxylic acid, Isomer 1], the “CYP3A4 induction Emax (%)” value in the data set on CYP3A4 was 8%. At ERα, the “% Degradation At 0.3 μM” value came to 85%.

For the compound `Cl.O=C(O)c1ccc2c(c1)CCCC(c1cccc(F)c1Cl)=C2c1ccc(CC2CCN(CCCF)C2)cc1` (single isomer, unassigned; isomer 1) [Compound 21, 8-(2-chloro-3-fluorophenyl)-9-(4-((1-(3-fluoropropyl)pyrrolidin-3-yl)methyl)phenyl)-6,7-dihydro-5H-benzo[7]annulene-3-carboxylic acid hydrochloride, Isomer 1], the “CYP3A4 induction Emax (%)” value in the data set with CYP3A4 amounted to 42%. Also, the “% Degradation At 0.3 μM” value on ERα came out at 87%.

For `O=C(O)c1ccc2c(c1)CCCC(c1cccc(Cl)c1F)=C2c1ccc(CC2CCN(CCCF)C2)cc1` (single isomer, unassigned; isomer 1) [Compound 16, 8-(3-chloro-2-fluorophenyl)-9-(4-((1-(3-fluoropropyl)pyrrolidin-3-yl)methyl)phenyl)-6,7-dihydro-5H-benzo[7]annulene-3-carboxylic acid, Isomer 1], the “CYP3A4 induction Emax (%)” value in the data set on CYP3A4 is 22%. Further, the “% Degradation At 0.3 μM” value on ERα came out at 88%.

Consider `Cl.O=C(O)c1ccc2c(c1)CCCC(c1ccc(F)cc1C(F)(F)F)=C2c1ccc(CC2CCN(CCC(F)F)C2)cc1` (single isomer, unassigned; isomer 1) [Compound 5, 9-(4-((1-(3,3-difluoropropyl)pyrrolidin-3-yl)methyl)phenyl)-8-(4-fluoro-2-(trifluoromethyl)phenyl)-6,7-dihydro-5H-benzo[7]annulene-3-carboxylic acid hydrochloride, Isomer 1], for which the “CYP3A4 induction Emax (%)” value in the data set with CYP3A4 is on record as 13%. On ERα, the “% Degradation At 0.3 μM” value is given as 80%.

With `Cl.O=C(O)c1ccc2c(c1)CCCC(c1cccc(Cl)c1C(F)(F)F)=C2c1ccc(CC2CCN(CCCF)C2)cc1` (single isomer, unassigned; isomer 1) [Compound 13, 8-(3-chloro-2-(trifluoromethyl)phenyl)-9-(4-((1-(3-fluoropropyl)pyrrolidin-3-yl)methyl)phenyl)-6,7-dihydro-5H-benzo[7]annulene-3-carboxylic acid hydrochloride, Isomer 1], the “CYP3A4 induction Emax (%)” value in the data set with CYP3A4 came out at 26%. The “% Degradation At 0.3 μM” value at ERα turned out to be 90%.

Consider `Cc1cc(F)ccc1C1=C(c2ccc(CC3CCN(CCC(F)F)C3)cc2)c2ccc(C(=O)O)cc2CCC1.Cl` (single isomer, unassigned; isomer 1) [Compound 4, 9-(4-((1-(3,3-difluoropropyl)pyrrolidin-3-yl)methyl)phenyl)-8-(4-fluoro-2-methylphenyl)-6,7-dihydro-5H-benzo[7]annulene-3-carboxylic acid hydrochloride, Isomer 1], for which the “CYP3A4 induction Emax (%)” value in the data set on CYP3A4 stood at 30%. Moreover, the “% Degradation At 0.3 μM” value at ERα amounted to 83%.

With `O=C(O)c1ccc2c(c1)CCCC(c1ccc(Cl)cc1Cl)=C2c1ccc(C[C@H]2CCN(CCCF)C2)cc1` [Compound 1, 8-(2,4-dichlorophenyl)-9-(4-((1-(3-fluoropropyl)pyrrolidin-3-yl)methyl)phenyl)-6,7-dihydro-5H-benzo[7]annulene-3-carboxylic acid, (S) Isomer], the “CYP3A4 induction Emax (%)” value in the data set on CYP3A4 turned out to be 7%. In the data set with CYP3A4 (rating based on % Emax relative to rifampicin), the “CYP3A4 induction (in words)” value is “no CYP3A4 induction”. Further, the “% Degradation At 0.3 μM” value on ERα is 85%.

As to `Cc1c(C2=C(c3ccc(CC4CCN(CCCF)C4)cc3)c3ccc(C(=O)O)cc3CCC2)cccc1C(F)(F)F.Cl` (single isomer, unassigned; isomer 1) [Compound 12, 9-(4-((1-(3-fluoropropyl)pyrrolidin-3-yl)methyl)phenyl)-8-(2-methyl-3-(trifluoromethyl)phenyl)-6,7-dihydro-5H-benzo[7]annulene-3-carboxylic acid hydrochloride, Isomer 1], the “CYP3A4 induction Emax (%)” value in the data set on CYP3A4 came to 34%. The “% Degradation At 0.3 μM” value on ERα is 90%.

With `Cc1c(Cl)cccc1C1=C(c2ccc(CC3CCN(CCC(F)F)C3)cc2)c2ccc(C(=O)O)cc2CCC1.Cl` (single isomer, unassigned; isomer 1) [Compound 6, 8-(3-chloro-2-methylphenyl)-9-(4-((1-(3,3-difluoropropyl)pyrrolidin-3-yl)methyl)phenyl)-6,7-dihydro-5H-benzo[7]annulene-3-carboxylic acid hydrochloride, Isomer 1], the “CYP3A4 induction Emax (%)” value with CYP3A4 worked out at 8%. Also, the “% Degradation At 0.3 μM” value on ERα turned out to be 81%.

As for `O=C(O)c1ccc2c(c1)CCCC(c1ccc(Cl)cc1Cl)=C2c1ccc(O[C@H]2CCN(CCCF)C2)cc1` [(C1), reference compound], the “CYP3A4 induction Emax (%)” value with CYP3A4 turned out to be 93%.
